# Assay results published in paper PMC12069340 (Frontiers in Cellular and Infection Microbiology, 2025).
# Counter-ions that a name gives are not always drawn. Like-named read-outs stand apart in the source and are kept apart here.
# Columns and labels:
# U937 cells [1] = settings: 20 µM
# U937 cells [2] = test system: U937 cells
# [3] = test system: A/PuertoRico/8/1934 (H1N1) virus; experiment: microbe, parasite or virus in culture; assay type: cell-based, influenza A virus
# [4] = test system: A/PuertoRico/8/1934 (H1N1) virus; experiment: microbe, parasite or virus in culture; assay type: cell-based, influenza A virus; remark: listed apart in the source
# in vitro [5] = experiment: in vitro
# in vitro [6] = settings: dog
# in vitro [7] = settings: human, Relative Viability (%)
# [8] = Validation screen: cytotoxicity without viral infection; settings: human
# in vitro [9] = settings: human
# [10] = test system: B/Human/Hubei/1/2007 (IBV); experiment: microbe, parasite or virus in culture; assay type: cell-based; settings: Influenza B virus, MDCK, 48 h, read-out: IBV IC50
# [11] = test system: A/Human/Hubei/3/2005 (H3N2); experiment: microbe, parasite or virus in culture; assay type: cell-based; settings: Influenza A virus, H3N2, A549, 48 h, read-out: H3N2 IC50
# in vitro [12] = settings: human; remark: listed apart in the source
# in vitro [13] = settings: human; remark: listed apart in the source
# primary tumor = test system: primary tumor; set-up: method as in Sakakitani et al., 2020; settings: xenograft model; ref Sakakitani et al., 2020; cited from earlier work
# oral cancer cells = test system: oral cancer cells; set-up: method as in Sakakitani et al., 2020; settings: ref Sakakitani et al., 2020; cited from earlier work
# [14] = test system: Bovine Liver Catalase (BLC); set-up: method as in Shahraki et al., 2020; settings: ref Shahraki et al., 2020; cited from earlier work
# striatal neurons = test system: striatal neurons; set-up: method as in Iwatsubo et al., 2007; settings: young and neonatal neurons; ref Iwatsubo et al., 2007; cited from earlier work
# [15] = test system: single-stranded RNA (ssRNA) viruses; settings: cited from earlier work
# [16] = Influenza A virus, H1N1, U-937, 48 h; read-out: NA Inhibition (%)
# [17] = Influenza A virus, H1N1, U-937, 48 h
# [18] = Influenza A virus, H1N1, U-937, 48 h, read-out: NA Inhibition (%)
compound,measurement,setting,value
Promethazine HCl,Relative Viability (%),U937 cells [1],105.7%
same,CC50,U937 cells [2],> 80 µM
same,NA Inhibition (%),[3]; 20 µM,64.8%
same,IC50,[4]; read-out: IC50,9.3 µM
O=C(c1ccc(OCCCc2cnc[nH]2)cc1)C1CC1 [Ciproxifan],CC50,"in vitro [5]; human, A549 cells",556 µM
same,CC50 at 48 h,in vitro [6],> 400 µM
same,viability at 20 µM,in vitro [7],131%
same,CC50 at 48 h,[8],> 80 µM
same,inhibition at 20 µM,[3]; [16],75.2%
same,CC50 at 48 h,in vitro [9],556 µM
same,IC50,[10],1.8 µM
same,IC50,[11],14.9 µM
same,CC50,in vitro [12],425 µM
same,IC50,[4]; [17],1.4 µM
CCCN(CCc1cccs1)[C@H]1CCc2c(O)cccc2C1 [Rotigotine],CC50,in vitro [5]; human,372 µM
same,CC50 at 48 h,in vitro [6],93 µM
same,viability at 20 µM,in vitro [7],147%
same,inhibition at 20 µM,[3]; [16],89.1%
same,IC50,[10],7.3 µM
same,IC50,[11],21.9 µM
same,IC50,[4]; [17],1.26 µM
Cc1ccc(OCC(O)C(C)NC(C)C)c2c1CCC2 (stereo not shown) [ICI-118551],CC50 at 48 h,in vitro [13],> 80 µM
same,viability at 20 µM,in vitro [7],106%
same,inhibition at 20 µM,[3]; [18],60.7%
same,IC50,[4]; [17],5.8 µM
COc1cc([C@@H]2c3cc4c(cc3[C@@H](O[C@@H]3O[C@@H]5CO[C@@H](C)O[C@H]5[C@H](O)[C@H]3O)[C@H]3COC(=O)[C@H]23)OCO4)cc(OC)c1O [etoposide],CC50,in vitro [5],260 µM
"CC(COc1ccccc1)NC(C)C(O)c1ccc(O)cc1 (stereo not shown) [Isoxsuprine, Isoxsuprine hydrochloride]",primary tumor growth,primary tumor,effectively suppressed primary tumor growth
same,CC50,"in vitro [5]; human, A549 cells",530 µM
same,mesenchymal cell markers and motility,oral cancer cells,downregulates mesenchymal cell markers and reduces motility
same,CC50 at 48 h,in vitro [6],> 400 µM
same,viability at 20 µM,in vitro [7],105%
same,CC50 at 48 h,[8],> 80 µM
same,inhibition at 20 µM,[3]; [18],86.5%
same,CC50 at 48 h,in vitro [9],> 900 µM
same,catalase activity,[14],reduce catalase activity
same,IC50,[10],3.4 µM
same,IC50,[11],34.3 µM
same,CC50,in vitro [12],> 900 µM
same,IC50,[4]; [17],1.5 µM
CC(C)NCC(O)c1ccc(O)c(O)c1 (stereo not shown) [Isoprenaline HCl],inhibition at 20 µM,[3]; [16],-12.4%
same,apoptosis,striatal neurons,did not promote apoptosis in either group
"C=C(CC)C(=O)c1ccc(OCC(=O)O)c(Cl)c1Cl [ethacrynic acid, Ethacrynic acid]",CC50,in vitro [5],240 µM
Propranolol HCl,CC50,U937 cells [2],> 80 µM
same,NA Inhibition (%),[3]; 20 µM,65.3%
"CN1CCN(CCCN2c3ccccc3Sc3ccc(Cl)cc32)CC1 [Prochlorperazine dimaleate, Prochlorperazine dimaleate salt]","antiviral properties, virus entry",[15],exhibits antiviral properties by disrupting clathrin redistribution
same,viability at 20 µM,in vitro [7],93.5%
same,CC50 at 48 h,[8]; uninfected U937 cells,38.4 µM
same,inhibition at 20 µM,[3]; [18],63.9%
O=C(C[S+]([O-])Cc1ccco1)NC/C=C\COc1cc(CN2CCCCC2)ccn1 (stereo not shown) [Lafutidine],CC50 at 48 h,in vitro [13],> 80 µM
same,viability at 20 µM,in vitro [7],109%
same,inhibition at 20 µM,[3]; [16],52%
same,IC50,[4]; [17],14.8 µM
NCCc1ccc(O)c(O)c1 [Dopamine HCl],inhibition at 20 µM,[3]; [18],-7.6%
same,apoptosis,striatal neurons,"can induce apoptosis in young striatal neurons through D1-like receptors, but not in neonatal neurons"
Meclizine 2HCl,Relative Viability (%),U937 cells [1],109.3%
same,CC50,U937 cells [2],79.5 µM
same,NA Inhibition (%),[3]; 20 µM,74.9%
same,IC50,[4]; read-out: IC50,5.3 µM
